PMC6644896 (ACS Omega, 2018)

Legend:
[1] = target: T1, human DNA topoisomerase I (Homo sapiens, UniProt P11387); assay: DNA relaxation assay, agarose gel; assay type: biochemical
T1 sequence (P11387 2-765): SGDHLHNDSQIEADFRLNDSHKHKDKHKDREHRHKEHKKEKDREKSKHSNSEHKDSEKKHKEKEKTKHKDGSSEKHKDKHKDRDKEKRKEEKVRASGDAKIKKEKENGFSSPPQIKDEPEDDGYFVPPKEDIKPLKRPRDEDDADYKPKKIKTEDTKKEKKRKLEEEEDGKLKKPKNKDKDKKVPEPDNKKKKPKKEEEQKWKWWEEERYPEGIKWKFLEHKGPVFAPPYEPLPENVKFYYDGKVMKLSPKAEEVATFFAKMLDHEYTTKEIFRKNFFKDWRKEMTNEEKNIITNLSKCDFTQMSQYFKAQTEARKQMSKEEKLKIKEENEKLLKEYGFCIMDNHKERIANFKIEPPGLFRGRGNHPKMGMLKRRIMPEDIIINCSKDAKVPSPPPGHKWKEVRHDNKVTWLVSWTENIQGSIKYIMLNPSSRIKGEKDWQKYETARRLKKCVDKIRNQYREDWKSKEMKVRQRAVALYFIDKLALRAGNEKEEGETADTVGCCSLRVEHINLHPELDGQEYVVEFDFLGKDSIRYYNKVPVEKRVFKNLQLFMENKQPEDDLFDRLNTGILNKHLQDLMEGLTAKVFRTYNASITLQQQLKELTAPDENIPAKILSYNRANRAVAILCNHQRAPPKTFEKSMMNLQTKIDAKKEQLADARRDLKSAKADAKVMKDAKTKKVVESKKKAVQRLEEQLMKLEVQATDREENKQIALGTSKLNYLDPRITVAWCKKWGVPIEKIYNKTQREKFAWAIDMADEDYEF

[2] = target: human DNA topoisomerase II alpha (Homo sapiens, UniProt P11388); assay: DNA relaxation assay, agarose gel; assay type: biochemical
Chain of human DNA topoisomerase II alpha (P11388 whole entry): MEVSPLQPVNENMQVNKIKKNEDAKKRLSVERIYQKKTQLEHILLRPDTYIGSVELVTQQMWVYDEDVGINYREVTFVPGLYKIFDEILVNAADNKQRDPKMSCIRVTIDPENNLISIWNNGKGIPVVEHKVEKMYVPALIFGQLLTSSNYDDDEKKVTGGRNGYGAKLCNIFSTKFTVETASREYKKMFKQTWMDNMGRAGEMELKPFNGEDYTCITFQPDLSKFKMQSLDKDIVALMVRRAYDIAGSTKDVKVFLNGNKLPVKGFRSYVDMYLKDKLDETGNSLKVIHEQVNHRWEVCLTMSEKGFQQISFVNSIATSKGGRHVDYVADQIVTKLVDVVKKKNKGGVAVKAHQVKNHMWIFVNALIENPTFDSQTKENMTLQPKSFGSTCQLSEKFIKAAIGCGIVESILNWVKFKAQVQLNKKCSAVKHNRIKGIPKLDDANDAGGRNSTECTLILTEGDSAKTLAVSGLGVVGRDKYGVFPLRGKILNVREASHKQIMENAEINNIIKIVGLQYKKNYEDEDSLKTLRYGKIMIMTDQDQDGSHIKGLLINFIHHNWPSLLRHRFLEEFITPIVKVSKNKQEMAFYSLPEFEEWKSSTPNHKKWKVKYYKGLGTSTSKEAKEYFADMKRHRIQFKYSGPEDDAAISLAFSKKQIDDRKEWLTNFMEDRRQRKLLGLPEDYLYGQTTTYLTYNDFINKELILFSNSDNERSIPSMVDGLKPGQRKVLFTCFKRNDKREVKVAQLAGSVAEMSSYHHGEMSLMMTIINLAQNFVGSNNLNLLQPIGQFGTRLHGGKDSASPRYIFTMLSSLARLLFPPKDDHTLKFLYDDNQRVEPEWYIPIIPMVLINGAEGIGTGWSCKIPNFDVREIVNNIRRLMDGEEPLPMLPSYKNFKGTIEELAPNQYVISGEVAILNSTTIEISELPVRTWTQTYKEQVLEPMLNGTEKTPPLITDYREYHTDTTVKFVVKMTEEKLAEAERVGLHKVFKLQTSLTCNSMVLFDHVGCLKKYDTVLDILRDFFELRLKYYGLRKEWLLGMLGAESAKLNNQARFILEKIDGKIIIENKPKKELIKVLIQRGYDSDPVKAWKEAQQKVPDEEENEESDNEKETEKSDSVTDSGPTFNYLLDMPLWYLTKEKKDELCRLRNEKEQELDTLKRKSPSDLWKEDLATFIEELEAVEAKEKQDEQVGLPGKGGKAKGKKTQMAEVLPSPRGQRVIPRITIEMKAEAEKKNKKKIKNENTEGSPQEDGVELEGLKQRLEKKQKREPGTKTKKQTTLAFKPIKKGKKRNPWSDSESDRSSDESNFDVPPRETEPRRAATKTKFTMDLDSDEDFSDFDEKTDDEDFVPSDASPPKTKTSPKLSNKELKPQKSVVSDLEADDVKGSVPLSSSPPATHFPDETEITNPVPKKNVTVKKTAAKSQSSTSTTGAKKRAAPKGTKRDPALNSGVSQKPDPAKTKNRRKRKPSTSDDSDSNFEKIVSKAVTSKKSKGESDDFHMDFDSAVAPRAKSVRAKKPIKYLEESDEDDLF

Structure (SMILES)	DNA relaxation assay, agarose gel (5 and 10 μM) [1]	DNA relaxation assay, agarose gel (5 and 10 μM) [2]
CC[C@@]1(O)C(=O)OCc2c1cc1n(c2=O)Cc2cc3ccccc3nc2-1 [CPT, camptothecin]	CPT (a control for topoisomerase I inhibition) and DOX (a control for topoisomerase II inhibition) at two different concentrations	
COc1cccc2c1C(=O)c1c(O)c3c(c(O)c1C2=O)C[C@@](O)(C(=O)CO)C[C@@H]3O[C@H]1C[C@H](N)[C@H](O)[C@H](C)O1 [DOX, doxorubicin]		These showed no DNA migration, indicating complete inhibition of the respective topoisomerase enzymes.
